Test [1] has as its target Tubulin beta chain (Bos taurus) (UniProt Q6B856). The test is described as follows: Compound was tested for its effect on microtubule stabilization isolated from bovine brain; compound was inactive.
For test [2] the target is unchanged. Kind of test: Compound was tested for its effect on microtubule stabilization isolated from bovine brain; NS: not significant.
The target is the same in test [3]. The test is described as follows: Compound was tested for its effect on microtubule stabilization isolated from bovine brain; not significant.

The source of these data is ChEMBL document CHEMBL1131541, “New synthetic inhibitors of microtubule depolymerization” (1998).

Calls of active or inactive are those of the source. No cut-off for these calls is given here.

Tubulin beta chain (Bos taurus), sequence (Q6B856 whole entry): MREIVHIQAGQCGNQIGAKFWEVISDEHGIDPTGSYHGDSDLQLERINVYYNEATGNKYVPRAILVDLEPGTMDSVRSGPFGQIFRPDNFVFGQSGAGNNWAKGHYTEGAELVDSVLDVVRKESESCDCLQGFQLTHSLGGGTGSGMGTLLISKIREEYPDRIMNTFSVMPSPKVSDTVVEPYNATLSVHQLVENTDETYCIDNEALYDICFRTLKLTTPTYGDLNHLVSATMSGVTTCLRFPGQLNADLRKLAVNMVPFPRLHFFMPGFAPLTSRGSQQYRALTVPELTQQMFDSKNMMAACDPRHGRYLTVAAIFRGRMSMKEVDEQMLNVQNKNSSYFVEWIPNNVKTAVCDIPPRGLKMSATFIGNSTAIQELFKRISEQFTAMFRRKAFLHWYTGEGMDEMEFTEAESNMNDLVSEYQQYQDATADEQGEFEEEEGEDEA

Turning to `C[C@@H]1C[C@@]23O[C@]2(c2ccccc21)C1CC(OC(=O)[C@H](O)[C@@H](NC(=O)OC(C)(C)C)c2ccccc2)C3(C)C1(C)C` (some centres not stated), the Relative stability entry in test [1] was “inactive”.
`CCOC(=O)N[C@@H](c1ccsc1)[C@@H](O)C(=O)OC1CC2C(C)(C)C1(C)[C@@]13C[C@](O)(COC(C)=O)c4ccccc4[C@@]21O3` (some centres not stated): the Relative stability entry in test [2] was “inactive”.
On the same count and under the same terms, under `CCOC(=O)N[C@@H](c1ccc(OCc2ccccc2)cc1)[C@@H](O)C(=O)OC1CC2C(C)(C)C1(C)[C@@]13C[C@H](C)c4ccccc4[C@@]21O3` (some centres not stated) stands “inactive”; under `C=C1C[C@@]23O[C@]2(c2ccccc21)C1CC(OC(=O)[C@H](O)[C@@H](NC(=O)NCC)c2ccccc2)C3(C)C1(C)C` (some centres not stated), “inactive”; under `CCCCOC(=O)N[C@@H](c1ccccc1)[C@@H](O)C(=O)OC1CC2C(C)(C)C1(C)[C@@]13C[C@H](C)c4ccccc4[C@@]21O3` (some centres not stated), “inactive”.
On to `C=C1C[C@@]23O[C@]2(c2ccccc21)C1CC(OC(=O)[C@H](O)[C@@H](NC(=O)CC(C)(C)C)c2ccccc2)C3(C)C1(C)C` (some centres not stated), for which the Relative stability entry in test [3] was “inactive”.
On to `C=C1C[C@@]23O[C@]2(c2ccccc21)C1CC(OC(=O)[C@H](O)[C@@H](NC(=O)OCC)c2ccc(OCc4ccccc4)cc2)C3(C)C1(C)C` (some centres not stated), for which the Relative stability entry in test [2] was “inactive”.
